{"source": "ChEMBL document CHEMBL4346748", "about": "“Growth inhibition by 1-deoxy-d-allulose, a novel bioactive deoxy sugar, screened using Caenorhabditis elegans assay” (Bioorg Med Chem Lett, 2019)", "key": {"[1]": {"tested_on": "Caenorhabditis elegans", "test": "Growth inhibition of Caenorhabditis elegans N2 assessed as body size at 42 mM incubated for 72 hrs by microscopic method relative to control", "assay_type": "functional"}, "[2]": {"tested_on": "Caenorhabditis elegans", "test": "Growth inhibition of Caenorhabditis elegans N2 assessed as reduction in body size incubated for 72 hrs by microscopic method", "assay_type": "functional", "conditions": "for GI50: N2, 72 h"}, "[3]": {"tested_on": "Caenorhabditis elegans", "test": "Ratio of GI50 for D-Alu to GI50 for test compound for growth inhibition of Caenorhabditis elegans N2 assessed as reduction in body size incubated for 72 hrs by microscopic method", "assay_type": "functional"}, "[4]": {"tested_on": "Caenorhabditis elegans", "test": "Growth inhibition of Caenorhabditis elegans N2 assessed as reduction in motility at 42 mM incubated for 72 hrs by microscopic method", "assay_type": "functional, organism-based"}, "[5]": {"test": "Toxicity in Caenorhabditis elegans N2 assessed as mortality at 42 mM incubated for 72 hrs by microscopic method", "conditions": "42000 µM"}, "[6]": {"tested_on": "Caenorhabditis elegans", "test": "Growth inhibition of Caenorhabditis elegans N2 assessed as reduction in body size at 9.5 mM incubated for 72 hrs in presence of D-ribose by microscopic method", "assay_type": "functional, organism-based"}, "[7]": {"tested_on": "Caenorhabditis elegans", "test": "Growth inhibition of Caenorhabditis elegans N2 assessed as reduction in body size at 9.5 mM incubated for 72 hrs in presence of up to 67 mM D-glucose by microscopic method", "assay_type": "functional, organism-based"}, "[8]": {"tested_on": "Caenorhabditis elegans", "test": "Growth inhibition of Caenorhabditis elegans N2 assessed as reduction in body size at 9.5 mM incubated for 72 hrs in presence of D-fructose by microscopic method", "assay_type": "functional, organism-based"}, "[9]": {"tested_on": "Caenorhabditis elegans", "test": "Growth inhibition of Caenorhabditis elegans N2 assessed as effect on body size at 42 mM incubated for 72 hrs by microscopic method", "assay_type": "functional, organism-based"}, "[10]": {"tested_on": "Caenorhabditis elegans", "test": "Growth inhibition of Caenorhabditis elegans N2 assessed as effect on body shape at 42 mM incubated for 72 hrs by microscopic method", "assay_type": "functional, organism-based"}}, "note": "The source made the active and inactive calls. No cut-off for these calls is given here.", "data": [{"smiles": "CC(=O)[C@@H](O)[C@H](O)[C@H](O)CO", "values": [{"measurement": "growth inhibition (GI)", "setting": "[1]", "result": "inactive"}]}, {"smiles": "O=C(CO)[C@H](O)[C@H](O)[C@H](O)CO", "values": [{"measurement": "GI50", "setting": "[2]", "result": 52.7, "unit": "mM"}]}, {"smiles": "C[C@@H](O)[C@@H](O)[C@@H](O)C(=O)CO", "values": [{"measurement": "growth inhibition (GI)", "setting": "[1]", "result": "inactive"}]}, {"smiles": "CC(=O)[C@@H](O)[C@H](O)[C@@H](O)CO", "values": [{"measurement": "growth inhibition (GI)", "setting": "[1]", "result": "inactive"}]}, {"smiles": "CC(=O)[C@H](O)[C@@H](O)[C@H](O)CO", "values": [{"measurement": "growth inhibition (GI)", "setting": "[1]", "result": "inactive"}]}, {"smiles": "CC(=O)[C@H](O)[C@@H](O)[C@@H](O)CO", "values": [{"measurement": "growth inhibition (GI)", "setting": "[1]", "result": "inactive"}]}, {"smiles": "O=C(CO)[C@H](O)[C@H](O)CCO", "values": [{"measurement": "growth inhibition (GI)", "setting": "[1]", "result": "inactive"}]}, {"smiles": "CC(=O)[C@H](O)[C@H](O)[C@H](O)CO", "values": [{"measurement": "RatioGI50", "setting": "[3]", "result": 10}, {"measurement": "growth inhibition (GI)", "setting": "[2]", "result": "Dose-dependent effect"}, {"measurement": "GI50", "setting": "[2]", "result": 5.4, "unit": "mM"}, {"measurement": "Activity", "setting": "[1]", "result": 5.7, "unit": "%"}, {"measurement": "growth inhibition (GI)", "setting": "[4]", "result": "Active"}, {"measurement": "Activity", "setting": "[5]", "result": "Non-Toxic"}, {"measurement": "growth inhibition (GI)", "setting": "[6]", "result": "inactive"}, {"measurement": "growth inhibition (GI)", "setting": "[7]", "result": "Active"}, {"measurement": "growth inhibition (GI)", "setting": "[8]", "result": "inactive"}, {"measurement": "growth inhibition (GI)", "setting": "[9]", "result": "Active"}, {"measurement": "growth inhibition (GI)", "setting": "[10]", "result": "Active"}]}, {"smiles": "CC(=O)[C@@H](O)[C@@H](O)[C@H](O)CO", "values": [{"measurement": "growth inhibition (GI)", "setting": "[1]", "result": "inactive"}]}, {"smiles": "CC(=O)[C@@H](O)[C@@H](O)[C@@H](O)CO", "values": [{"measurement": "growth inhibition (GI)", "setting": "[1]", "result": "inactive"}]}, {"smiles": "CC(=O)[C@H](O)[C@H](O)[C@@H](O)CO", "values": [{"measurement": "growth inhibition (GI)", "setting": "[1]", "result": "inactive"}]}]}
